Reference: PMC5823406, “Vehicle development, pharmacokinetics and toxicity of the anti-invasive agent 4-fluoro-3’,4’,5’-trimethoxychalcone in rodents” (PLoS ONE, 2018)
“And” between values parts separate entries of the source, which are not always exact repeats. Identical values can stand only once. “Also recorded” adds a separate entry of the source. Like-named read-outs stand apart in the source and are kept apart here. Marks after values point to notes of the source that are not given here.

Tests used:
[1] = Solubility in vehicles, visual determination; format: physicochemical
Protocol: C16 has low aqueous solubility, which limits the choice of preclinical formulations for in vivo studies. In this work, thirteen vehicles were evaluated for their applicability in single-dose studies (Table 1). For commonly used systems (entries a-e) visual determination of solubility was conducted, while for the more complex systems solubility was assessed by laser nephelometry.

[2] = Plasma PK study (IV and PO) in male Sprague-Dawley rats; format: in vivo, rat
Source text: Six male Sprague-Dawley rats (200–350 g) were obtained from Hilltop Labs. Animals were assigned randomly to two groups (IV or PO) of 3 upon arrival. Duration of acclimation was approximately two days. Animals were healthy at the start of the trial.
Animals subjected to IV dosing were fitted with a jugular vein cannula (JVC) under isoflurane anesthesia (induction 4%, maintenance 2.0%, oxygen 1 L/min) and under an external heating source. Post-operative analgesia was provided in the form of 2.5–5 mg/kg of ketoprofen subcutaneously. Benzylpenicillin (60 mg) was given intramuscularly to prevent infection. Sterile 0.9% NaCl was injected subcutaneously under the back skin using a 21G needle during recovery to replace fluid loss. Animals were placed under a heat lamp and monitored until they regained full consciousness. […] Surgically modified animals were housed individually, monitored hourly for the first 4 h and then daily over a 2-day recovery period.
Animals were maintained in a well-controlled temperature (20–24°C) and humidity (30%-70%) environment with 12 h light/dark cycles. Conventional cages with wood chip bedding were used. Animals were identified by a cage label. The study was not blinded. Food was withheld from all animals for a minimum of twelve hours prior to test article administration and returned at approximately 4 h post-dose. Water was supplied ad libitum.
C16 was dosed in cassette with two undisclosed compounds of similar chemical structure. Dosing solutions were prepared in 100% DMSO on the day of dosing. The concentration of C16 was 1 and 5 mg/mL for IV and PO dosing, respectively. C16 was administered at 1 mg/kg IV via JVC or at 10 mg/kg PO.
Sampling took place pre-dose, 5, 15, 30 min, 1, 2, 4, and 8 h post-dose. Blood samples (0.3 mL) were collected via the JVC, placed into chilled tubes containing sodium heparin and kept on ice until centrifugation. Plasma preparation involved centrifugation at a temperature of 2 to 8°C at 3,000 g for 5 min. Plasma samples were stored frozen at -70°C until analysis. No necropsy was performed.
Pharmacokinetic parameters were estimated by a non-compartmental model using WinNonlin (v5.2.1 or higher) software. The maximum plasma/blood concentrations (c0) after IV dosing were estimated by extrapolation of the first two time points back to t = 0. The maximum blood concentration (cmax) and the time to reach maximum blood drug concentration (tmax) after PO dosing were derived from the data. The area under the time-concentration curve (AUC) was calculated using the linear trapezoidal rule with calculation to the last quantifiable data point, and with extrapolation to infinity if applicable. Plasma/blood half-life (t1/2) was calculated from 0.693/slope of the terminal elimination phase. Mean residence time (MRT) was calculated by dividing the area under the moment curve (AUMC) by the AUC. Clearance (CL) was calculated from dose/AUC. Steady-state volume of distribution (Vss) was calculated from CL*MRT. Bioavailability was determined by dividing the individual dose-normalized PO AUC values by the respective average dose-normalized intravenous (IV) AUC value. Samples that were below the limit of quantification were not used in the calculation of averages, and were treated as zero for pharmacokinetic data analysis. […]
(mAU.s) (mAU.s) peak area) (mAU.s) (mAU.s) peak area) (mAU.s) (mAU.s) peak area) […]
a. Dosing solution preparation
The dosing solution was prepared as a cassette to contain all three test articles in the same solution. IV dosing was fixed at 2 mg/mL of C16 and the two other test articles in neat DMSO as the vehicle, with a dosing volume 0.5 mL/kg (slow injection). PO dosing was set at 10 mg/mL of C16 and the two other test articles in neat DMSO as the vehicle, with a dosing volume of 1 mL/kg.
Individual plasma concentrations for C16 are shown in Table F and Table G. All data are expressed as ng/mL of the […]
free drug. […]

[3] = LogD, partition coefficient n-octanol/PBS; format: physicochemical; conditions: pH 7.4, 100 μM
Source text: (§1) Table 3 In vitro physicochemical, stability and metabolism data. | column: Value

[4] = Half-life in PBS, simulated gastric fluid and simulated intestinal fluid; format: physicochemical; conditions: 1 μM
Source text: as §1

Plasma stability = format: in vitro ADME; conditions: plasma (rat, Sprague-Dawley)
Source text: as §1

[5] = male, Sprague-Dawley, rat, plasma, iv, 1 mg/kg, male Sprague-Dawley rat, IV 1 mg/kg, vehicle DMSO, average
[6] = male, Sprague-Dawley, rat, plasma, iv, 1 mg/kg, rat plasma, IV 1 mg/kg, individual animals 1-3
[7] = male, Sprague-Dawley, rat, plasma, po, 10 mg/kg, male Sprague-Dawley rat, PO 10 mg/kg, vehicle DMSO, average
[8] = male, Sprague-Dawley, rat, plasma, po, 10 mg/kg, male Sprague-Dawley rat, PO 10 mg/kg, vehicle DMSO, calculated for two out of three animals
[9] = plasma, male Sprague-Dawley rat, IV 1 mg/kg, vehicle DMSO, average
[10] = rat plasma, IV 1 mg/kg, individual animals 1-3, 1 mg/kg
[11] = rat plasma, PO 10 mg/kg, individual animals 4-6, 10 mg/kg
[12] = rat plasma, PO 10 mg/kg, individual animals 5-6, 10 mg/kg

With `COc1cc(C(=O)/C=C/c2ccc(F)cc2)cc(OC)c1OC` [C16, 4-fluoro-3’,4’,5’-trimethoxychalcone] the “Solubility of C16 in vehicle: Result” value ([1]; 10% (DMSO / Cremophor EL 1:1) / 90% Milli-Q water, 2 mg/mL) was “Insoluble ^a”, the “Solubility of C16 in vehicle: Result” value ([1]; 10% DMSO in normal saline, 1 mg/mL) was “Insoluble ^a” and the “Solubility of C16 in vehicle: Result” value ([1]; 20% DMSO / 10% (DMSO / Cremophor EL 1:1) / 70% Milli-Q water, 2 mg/mL) was “Soluble ^a”. The “Solubility of C16 in vehicle: Result” value ([1]; 50% DMSO in normal saline, 1 mg/mL) was “Insoluble ^a”, the “Solubility of C16 in vehicle: Result” value ([1]; DMSO, 10 mg/mL) was “highly soluble; also recorded: Soluble ^a” and the AUC(0-inf) [2, 5] was 215 ng·h/mL. The AUC(0-t) [2, 5] was 211 ng·h/mL, the MRT last [2, 5] was 0.76 h and the clearance [2, 5] was 82.5 mL/min/kg. It also gave a half-life [2, 5] of 1.93 h, a C0 ([2]; male, Sprague-Dawley, rat, plasma, iv, 1 mg/kg, male Sprague-Dawley rat, IV 1 mg/kg, vehicle DMSO, average, extrapolated to t = 0) of 1260 ng/mL and a Vd ([2]; male, Sprague-Dawley, rat, plasma, iv, 1 mg/kg, plasma, male Sprague-Dawley rat, IV 1 mg/kg, vehicle DMSO, average, read-out: Vss) of 4.77 L/kg. For the same compound, the Tmax ([2]; male, Sprague-Dawley, rat, plasma, iv, 1 mg/kg, plasma, male Sprague-Dawley rat, IV 1 mg/kg, vehicle DMSO, average, read-out: tmax) was 0 h, the AUC(0-inf) [2, 6] was 227 ng·h/mL and the AUC(0-t) [2, 6] was 224 ng·h/mL. It also gave an MRT last [2, 6] of 0.7 h, a clearance [2, 6] of 73.3 mL/min/kg and a half-life [2, 6] of 1.8 h. It also gave a Tmax ([2]; male, Sprague-Dawley, rat, plasma, iv, 1 mg/kg, rat plasma, IV 1 mg/kg, individual animals 1-3, read-out: tmax) of 0 h, a concentration at 0.5 h ([2]; male, Sprague-Dawley, rat, plasma, iv, 1 mg/kg, rat, IV 1 mg/kg, 0.50 h, animals 1-3, read-out: Individual plasma concentration) of 32.4 ng/mL and a concentration at 1 h ([2]; male, Sprague-Dawley, rat, plasma, iv, 1 mg/kg, rat, IV 1 mg/kg, 1.0 h, animals 1-3, read-out: Individual plasma concentration) of 23.1 ng/mL. The concentration at 2 h ([2]; male, Sprague-Dawley, rat, plasma, iv, 1 mg/kg, rat, IV 1 mg/kg, 2.0 h, animals 1-3, read-out: Individual plasma concentration) was 14.3 ng/mL, the concentration at 4 h ([2]; male, Sprague-Dawley, rat, plasma, iv, 1 mg/kg, rat, IV 1 mg/kg, 4.0 h, animals 1-3, read-out: Individual plasma concentration) was 4.94 ng/mL and the concentration at 8 h ([2]; male, Sprague-Dawley, rat, plasma, iv, 1 mg/kg, rat, IV 1 mg/kg, 8.0 h, animals 1-3, read-out: Individual plasma concentration) was 1.34 ng/mL. The AUC(0-t) [2, 7] was 146 ng·h/mL, the MRT last [2, 7] was 3.67 h and the AUC(0-inf) [2, 8] was 161 ng·h/mL. For the same compound, the half-life [2, 8] was 3.67 h, the Bioavailability ([2]; male, Sprague-Dawley, rat, plasma, po, 10 mg/kg, plasma, male Sprague-Dawley rat, PO 10 mg/kg, vehicle DMSO, average, read-out: Bioavailability) was 6.91% and the cmax ([2]; male, Sprague-Dawley, rat, plasma, po, 10 mg/kg, plasma, male Sprague-Dawley rat, PO 10 mg/kg, vehicle DMSO, average, read-out: cmax) was 32.2 ng/mL. The Tmax ([2]; male, Sprague-Dawley, rat, plasma, po, 10 mg/kg, plasma, male Sprague-Dawley rat, PO 10 mg/kg, vehicle DMSO, average, read-out: tmax) was 2.83 h, the MRT last ([2]; male, Sprague-Dawley, rat, plasma, po, 10 mg/kg, rat plasma, PO 10 mg/kg, individual animals 4-6) was 4.92 h and the concentration at 0.5 h ([2]; male, Sprague-Dawley, rat, plasma, po, 10 mg/kg, rat, PO 10 mg/kg, 0.50 h, animals 4-6, read-out: Individual plasma concentration) was 22.5 ng/mL. The concentration at 2 h ([2]; male, Sprague-Dawley, rat, plasma, po, 10 mg/kg, rat, PO 10 mg/kg, 2.0 h, animals 4-6, read-out: Individual plasma concentration) was 15.1 ng/mL, the “Dose-normalized AUClast” value [2, 9] was 211 kg·ng·h/mL/mg and the “Dose-normalized AUC∞” value [2, 9] was 215 kg·ng·h/mL/mg. The “Dose-normalized AUClast” value ([2]; plasma, male Sprague-Dawley rat, PO 10 mg/kg, vehicle DMSO, average) was 14.6 kg·ng·h/mL/mg, the “Dose-normalized AUC∞” value ([2]; plasma, male Sprague-Dawley rat, PO 10 mg/kg, vehicle DMSO, calculated for two out of three animals) was 16.1 ^f h∙kg ng/mL/mg and the AUClast [2, 10] was 145 ng·h/mL and 264 ng·h/mL. For the same compound, the “AUC∞” value [2, 10] was 149 ng·h/mL and 269 ng·h/mL, the CL [2, 10] was 112 mL/min/kg and 62 mL/min/kg and the MRTlast [2, 10] was 0.87 h and 0.71 h. For the same compound, the Vss [2, 10] was 3.73 L/kg and 7.30 L/kg and 3.27 L/kg, the c0 [2, 10] was 1718 ng/mL and 659 ng/mL and 1395 ng/mL and the t1/2 [2, 10] was 2.00 h. For the same compound, the AUClast [2, 11] was 236 ng·h/mL and 88.0 ng·h/mL and 114 ng·h/mL, the Bioavailability [2, 11] was 11.2% and 4.17% and 5.39% and the “Dose Normalized AUClast” value [2, 11] was 23.6 kg·ng·h/mL/mg and 8.80 kg·ng·h/mL/mg and 11.4 kg·ng·h/mL/mg. For the same compound, the MRTlast [2, 11] was 3.60 h and 2.48 h, the Tmax [2, 11] was 8.00 h and the cmax [2, 11] was 47.1 ng/mL and 15.9 ng/mL and 33.5 ng/mL. The “AUC∞” value [2, 12] was 219 ng·h/mL, the “Dose Normalized AUC∞” value [2, 12] was 10.2 kg·ng·h/mL/mg and 21.9 kg·ng·h/mL/mg and the t1/2 [2, 12] was 11.0 h. For the same compound, the “Adverse effects after intravenous and oral administration” value ([2]; rat, 1 mg/kg IV and 10 mg/kg PO, cassette in 100% DMSO) was “No adverse effects were observed”, the Individual plasma concentration ([2]; rat, IV 1 mg/kg, 0.083 h, animals 1-3, 1 mg/kg) was 568 ng/mL and 345 ng/mL and 693 ng/mL and the Individual plasma concentration ([2]; rat, IV 1 mg/kg, 0.25 h, animals 1-3, 1 mg/kg) was 62.1 ng/mL and 94.6 ng/mL and 171 ng/mL. The Individual plasma concentration ([2]; rat, IV 1 mg/kg, 0.50 h, animals 1-3, 1 mg/kg) was 31.9 ng/mL and 63.2 ng/mL, the Individual plasma concentration ([2]; rat, IV 1 mg/kg, 1.0 h, animals 1-3, 1 mg/kg) was 19.1 ng/mL and 25.4 ng/mL and the Individual plasma concentration ([2]; rat, IV 1 mg/kg, 2.0 h, animals 1-3, 1 mg/kg) was 8.99 ng/mL and 12.6 ng/mL. For the same compound, the Individual plasma concentration ([2]; rat, IV 1 mg/kg, 4.0 h, animals 1-3, 1 mg/kg) was 4.34 ng/mL and 6.41 ng/mL, the Individual plasma concentration ([2]; rat, IV 1 mg/kg, 8.0 h, animals 1-3, 1 mg/kg) was 1.12 ng/mL and 1.58 ng/mL and the Individual plasma concentration ([2]; rat, PO 10 mg/kg, 0.25 h, animals 4-6, 10 mg/kg) was 21.8 ng/mL and 15.9 ng/mL and 33.5 ng/mL. The Individual plasma concentration ([2]; rat, PO 10 mg/kg, 0.50 h, animals 4-6, 10 mg/kg) was 14.8 ng/mL and 24.0 ng/mL, the Individual plasma concentration ([2]; rat, PO 10 mg/kg, 1.0 h, animals 4-6, 10 mg/kg) was 28.3 ng/mL and 13.6 ng/mL and 22.0 ng/mL and the Individual plasma concentration ([2]; rat, PO 10 mg/kg, 2.0 h, animals 4-6, 10 mg/kg) was 11.4 ng/mL and 18.2 ng/mL. For the same compound, the Individual plasma concentration ([2]; rat, PO 10 mg/kg, 4.0 h, animals 4-6, 10 mg/kg) was 27.9 ng/mL and 11.7 ng/mL and 13.6 ng/mL, the Individual plasma concentration ([2]; rat, PO 10 mg/kg, 8.0 h, animals 4-6, 10 mg/kg) was 47.1 ng/mL and 8.04 ng/mL and 5.96 ng/mL and the LogD [3] was 3.85. The half-life ([4]; PBS, pH 7.4) was >4 h, the half-life ([4]; simulated gastric fluid) was >1 h and the half-life ([4]; simulated intestinal fluid) was >4 h. For the same compound, the half-life at 1 μM (Plasma stability) was > 2 h.
